Here are results for 24 compounds from US20250136568A1, “FUSED HETEROCYCLIC COMPOUNDS AS PI3KALPHA INHIBITORS” (Nanjing Zenshine Pharmaceuticals Co., Ltd., priority 2021, published 2025).

The subject of assay [1] is PI3Kα wide type cell line SK-BR-3. Briefly: Cell Proliferation IC50 Assay (CellTiter-Glo), SK-BR-3. It counts as cell-based. The following applies: Homo sapiens; SK-BR-3 (PI3Kα wild type), 72 hours, CellTiter-Glo; read-out: IC50 (μM) SK-BR-3. The source says:
(§1) PI3Kα H1047R mutation cell line T-47D and MDA-MB-453, E545K mutation cell line MDA-MB-361 and PI3Kα wide type cell line SK-BR-3 were purchased from Cobioer Biotech (cat. no CBP60397, CBP60386, CBP60383 and CBP60413 respectively). The CellTiter-Glo Direct Cell Proliferation Assay Kit was purchased from Prornega (cat. No. G7573)
(§2) For cell proliferation assay in each cell line: • a. Prepare complete medium (R PMI 1640, DMEM or McCoys): Add FBS and appropriate additives according to the information sheet provided by the vendor. Mix gently. • b. Prepare single cell suspension and count the cell numbers and adjust cells to appropriate density. • c. Add 80 μL of cell suspension to 96-well opaque-walled clear bottom plates according to the planned plate layout and place the plates in the CO2 incubator overnight. • d. Prepare intermediate plate: 10 μl of diluted test compounds or staurosporine solution (200×) is added to a 96 deep well plate. Then 390 μl of culture medium without FBS is added to the respective wells. • e. Transfer 20 μL of the solutions from the above intermediate plate to the wells of the plate prepared containing 80 μL of the culture medium and cells. The total dilution is 200 folds. • f. The cells were then incubated at 5% CO2, 37° C. for 72 hours. • g. Equilibrate the plate and its contents to room temperature for approximately 30 minutes. • h. Add 100 μL of CellTiter-Glo reagent to the assay plate • i. Mix contents for 10 minutes on an orbital shaker to induce cell lysis. • j. Allow the plate to incubate at room temperature for 10 minutes to stabilize luminescent signal, • k. Paste the clear bottom with white back seal and record luminescence with Varioskan LUX plate reader.
(§3) Inhibition % and IC50 value were calculated by the formula described below: […]
A general note: In ATP-based viability assays light output follows the ATP content of the culture.

The test system of assay [2] is PI3Kα H1047R mutation cell line T-47D. Description: Cell Proliferation IC50 Assay (CellTiter-Glo), T-47D. It counts as cell-based. The following applies: Homo sapiens, T47D (H1047R), 72 hours, CellTiter-Glo, read-out: IC50 (μM) T47D.
From the text: as §1, §2, §3

Each structure is given as a SMILES string. Read-outs that look alike come from different tables or passages of the source.

What is called IC50 is the concentration that inhibits the measured activity by half.

As for `Cc1cc(C(C)Nc2cccnc2C(=O)O)c2oc(-c3ccc4nn(C)cc4c3)cc(=O)c2c1` (stereo not drawn) [Example 114, 3-((1-(6-methyl-2-(2-methyl-21-indazol-5-yl)-4-oxo-4H-chromen-8-yl)ethyl)amino)picolinic acid], the 50% inhibitory concentration (IC50) is more than 10 µM in assay [1] and 0.46 µM in assay [2] (T47D, 72 h).
As to `CC(=O)N1CCN(c2ccc(-c3oc4c([C@@H](C)Nc5ccccc5C(=O)O)cc(C)cc4c(=O)c3C)nc2)CC1` [Example 115, (R)-2-((1-(2-(5-(4-acetylpiperazin-1-yl)pyridin-2-yl)-3,6-dimethyl-4-oxo-4H-chromen-8-yl)ethyl)amino)benzoic acid], the IC50 in assay [1] was 3.43 µM; in assay [2], 0.074 µM.
On to `Cc1cc(C(C)Nc2ccccc2C(=O)O)c2oc(-c3cc4cnccc4[nH]3)cc(=O)c2c1` (stereo not drawn) [Example 116], for which the concentration for half-maximal inhibition (IC50) in assay [1] is more than 10 µM; in assay [2] (T47D, 72 h), 0.97 µM.
On to `Cc1cc(C(C)Nc2ccccc2C(=O)O)c2oc(-c3cc4ccncc4[nH]3)cc(=O)c2c1` (stereo not drawn) [Example 117, 2-((1-(6-methyl-4-oxo-2-(1H-pyrrolo[2,3-c]pyridin-2-yl)-4H-chromen-8-yl)ethyl)amino)benzoic acid], for which the IC50 in assay [1] is more than 10 µM; in assay [2] (T47D, 72 h), 0.28 µM.
For `Cc1cc(C(C)Nc2ccccc2C(=O)O)c2oc(-c3ccc4c(=O)n(C)cnc4c3)cc(=O)c2c1` (stereo not drawn) [Example 121, 2-((1-(6-methyl-2-(3-methyl-4-oxo-3,4-dihydroquinazolin-7-yl)-4-oxo-4H-chromen-8-yl)ethyl)amino)benzoic acid], in that order: more than 10 µM and 0.76 µM.
Regarding `Cc1cc([C@@H](C)Nc2ccccc2C(=O)O)c2oc(-c3ccc(CN4CCCC4=O)cc3)c(C)c(=O)c2c1` [Example 135, (R)-2-((1-(3,6-dimethyl-4-oxo-2-(4-((2-oxopyrrolidin-1-yl)methyl)phenyl)-4H-chromen-8-yl)ethyl)amino)benzoic acid], the half-inhibitory concentration (IC50) in assay [1] was more than 10 µM; in assay [2] (T47D, 72 h) it was 0.18 µM.
For `Cc1cc([C@@H](C)Nc2ccccc2C(=O)O)c2oc(-c3ccc(Cn4cncn4)cc3)c(C)c(=O)c2c1` [Example 136, (R)-2-((1-(2-(4-((1H-1,2,4-triazol-1-yl)methyl)phenyl)-3,6-dimethyl-4-oxo-4H-chromen-8-yl)ethyl)amino)benzoic acid], in that order: more than 10 µM and more than 10 µM.
For `CC(=O)N1CCN(Cc2ccc(-c3oc4c([C@@H](C)Nc5ccccc5C(=O)O)cc(C)cc4c(=O)c3C)cc2)CC1` [Example 137, (R)-2-((1-(2-(4-((4-acetylpiperazin-1-yl)methyl)phenyl)-3,6-dimethyl-4-oxo-4H-chromen-8-yl)ethyl)amino)benzoic acid], the IC50 is more than 10 µM in assay [1] and 0.19 µM in assay [2] (T47D, 72 h).
For `CC(=O)N1CCN(C(C)c2ccc(-c3oc4c([C@@H](C)Nc5ccccc5C(=O)O)cc(C)cc4c(=O)c3C)cc2)CC1` (stereo partly drawn) [Example 138, 2-(((1R)-1-(2-(4-(1-(4-acetylpiperazin-1-yl)ethyl)phenyl)-3,6-dimethyl-4-oxo-4H-chromen-8-yl)ethyl)amino)benzoic acid], in that order: more than 10 µM and 0.083 µM.
The matching figures for `CC(=O)N1CCN(C(=O)c2ccc(-c3oc4c([C@@H](C)Nc5ccccc5C(=O)O)cc(C)cc4c(=O)c3C)cc2)CC1` [Example 139, (R)-2-((1-(2-(4-(4-acetylpiperazine-1-carbonyl)phenyl)-3,6-dimethyl-4-oxo-4H-chromen-8-yl)ethyl)amino)benzoic acid]: more than 10 µM and 1.04 µM.
For `Cc1cc([C@@H](C)Nc2ccccc2C(=O)O)c2oc(-c3ccc(OCCN4CCOCC4)cc3)c(C)c(=O)c2c1` [Example 141, (R)-2-((1-(3,6-dimethyl-2-(4-(2-morpholinoethoxy)phenyl)-4-oxo-4H-chromen-8-yl)ethyl)amino)benzoic acid], in that order: more than 10 µM and 0.044 µM.
As for `Cc1cc([C@@H](C)Nc2ccccc2C(=O)O)c2oc(-c3ccc(CCN4CCOCC4)cc3)c(C)c(=O)c2c1` [Example 142, (R)-2-((1-(3,6-dimethyl-2-(4-(2-morpholinoethyl)phenyl)-4-oxo-4H-chromen-8-yl)ethyl)amino)benzoic acid], the 50% inhibitory concentration (IC50) in assay [1] was more than 10 µM; in assay [2] (T47D, 72 h) it was 0.043 µM.
The matching figures for `Cc1cc(C(C)Nc2ccccc2C(=O)O)c2oc(-c3ccc(-n4ccnc4)cc3)cc(=O)c2c1` (stereo not drawn) [Example 143, 2-((1-(2-(4-(1H-imidazol-1-yl)phenyl)-6-methyl-4-oxo-4H-chromen-8-yl)ethyl)amino)benzoic acid]: more than 10 µM and 0.25 µM.
The matching figures for `Cc1cc(C(C)Nc2ccccc2C(=O)O)c2oc(-c3ccc(-c4cn(C)cn4)cc3)cc(=O)c2c1` (stereo not drawn) [Example 144, 2-((1-(6-methyl-2-(4-(1-methyl-1H-imidazol-4-yl)phenyl)-4-oxo-4H-chromen-8-yl)ethyl)amino)benzoic acid]: more than 10 µM and 0.14 µM.
The matching figures for `CC(=O)N1CC(c2ccc(-c3cc(=O)c4cc(C)cc(C(C)Nc5ccccc5C(=O)O)c4o3)cc2)C1` (stereo not drawn) [Example 145, 2-((1-(2-(4-(1-acetylazetidin-3-yl)phenyl)-6-methyl-4-oxo-4H-chromen-8-yl)ethyl)amino)benzoic acid]: more than 10 µM and 1.6 µM.
As for `Cc1cc([C@@H](C)Nc2ccccc2C(=O)O)c2oc(-c3ccc(Cn4ccnc4)cc3)c(C)c(=O)c2c1` [Example 146, (R)-2-((1-(2-(4-((1H-imidazol-1-yl)methyl)phenyl)-3,6-dimethyl-4-oxo-4H-chromen-8-yl)ethyl)amino)benzoic acid], the half-inhibitory concentration (IC50) in assay [1] was more than 10 µM; in assay [2] (T47D, 72 h) it was 0.18 µM.
The matching figures for `Cc1cc(C(C)Nc2ccccc2C(=O)O)c2oc(-c3cnc(N4CCOCC4)nc3)cc(=O)c2c1` (stereo not drawn) [Example 152, 2-((1-(6-methyl-2-(2-morpholinopyrimidin-5-yl)-4-oxo-4H-chromen-8-yl)ethyl)amino)benzoic acid]: more than 10 µM and 6.9 µM.
In the case of `CC(=O)N1CCN(c2ccc(-c3oc4c([C@@H](C)Nc5ccccc5C(=O)O)cc(C)cc4c(=O)c3C)cn2)CC1` [Example 153, (R)-2-((1-(2-(6-(4-acetylpiperazin-1-yl)pyridin-3-yl)-3,6-dimethyl-4-oxo-4H-chromen-8-yl)ethyl)amino)benzoic acid], the IC50 in assay [1] is more than 10 µM; in assay [2] (T47D, 72 h) it was 0.29 µM.
The matching figures for `Cc1cc(C(C)Nc2ccccc2C(=O)NO)c2oc(-c3ccc4nn(C)cc4c3)c(C)c(=O)c2c1` (stereo not drawn) [Example 156, 2-((1-(3,6-dimethyl-2-(2-methyl-2H-indazol-5-yl)-4-oxo-41H-chromen-8-yl)ethyl)amino)-N-hydroxybenzamide]: more than 10 µM and 0.13 µM.
Take `Cc1cc([C@@H](C)Nc2ccccc2C(=O)NS(=O)(=O)C2CC2)c2oc(-c3ccc4nn(C)cc4c3)cc(=O)c2c1` [Example 157, (R)—N-(cyclopropylsulfonyl)-2-((1-(6-methyl-2-(2-methyl-2H-indazol-5-yl)-4-oxo-4H-chromen-8-yl)ethyl)amino)benzamide]: the half-maximal inhibitory concentration (IC50) in assay [1] is more than 10 µM; in assay [2] (T47D, 72 h), 3.43 µM.
With `Cc1cc([C@@H](C)Nc2ccccc2C(=O)NS(C)(=O)=O)c2oc(-c3ccc4nn(C)cc4c3)cc(=O)c2c1` [Example 158, (R)-2-((1-(6-methyl-2-(2-methyl-2H-indazol-5-yl)-4-oxo-4H-chromen-8-yl)ethyl)amino)-N-(methylsulfonyl)benzamide], the half-maximal inhibitory concentration (IC50) was more than 10 µM in assay [1] and 5.5 µM in assay [2] (T47D, 72 h).
The matching figures for `CC(=O)N1CCN(c2ccc(-c3oc4c(C(C)Nc5ccccc5S(N)(=O)=O)cc(C)cc4c(=O)c3C)cc2)CC1` (stereo not drawn) [Example 159, 2-((1-(2-(4-(4-acetylpiperazin-1-yl)phenyl)-3,6-dimethyl-4-oxo-4H-chromen-8-yl)ethyl)amino)benzenesulfonamide]: more than 10 µM and 0.41 µM.
`Cc1cc([C@@H](C)Nc2ccccc2C(=O)O)c2oc(-c3ccc(OC4CCN(C)C4)cc3)c(C)c(=O)c2c1` (stereo partly drawn) [Example 160, 2-(((1R)-1-(3,6-dimethyl-2-(4-((1-methylpyrrolidin-3-yl)oxy)phenyl)-4-oxo-4H-chromen-8-yl)ethyl)amino)benzoic acid]: the IC50 in assay [1] is more than 10 µM; in assay [2], 0.065 µM.
For the compound `Cc1cc([C@@H](C)Nc2ccccc2C(=O)O)c2oc(-c3ccc(N4CCC(N(C)C)CC4)cc3)c(C)c(=O)c2c1` [Example 161, (R)-2-((1-(2-(4-(4-(dimethylamino)piperidin-1-yl)phenyl)-3,6-dimethyl-4-oxo-4H-chromen-8-yl)ethyl)amino)benzoic acid], the IC50 worked out at 6.5 µM in assay [1] and 0.067 µM in assay [2] (T47D, 72 h).
